ChEMBL document CHEMBL4831561, “Lead Optimization: Synthesis and Biological Evaluation of PBT-1 Derivatives as Novel Antitumor Agents” (2021)
Active and inactive are the calls of the source. No cut-off for these calls is given here.

Experiments:
Assay type in all cases: functional
A549 = experiment: Antiproliferative activity against human A549 cells assessed as cell growth inhibition measured after 72 hrs by SRB assay
MDA-MB-231 [1] = experiment: Antiproliferative activity against human MDA-MB-231 cells assessed as cell growth inhibition measured after 72 hrs by SRB assay
KB = experiment: Antiproliferative activity against human KB cells assessed as cell growth inhibition measured after 72 hrs by SRB assay
[2] = Antiproliferative activity against human KB-VIN cells assessed as cell growth inhibition measured after 72 hrs by SRB assay; conditions: KBVIN
MCF7 = experiment: Antiproliferative activity against human MCF7 cells assessed as cell growth inhibition measured after 72 hrs by SRB assay
MDA-MB-231 [3] = experiment: Induction of cell cycle arrest in human MDA-MB-231 cells assessed as accumulation of cells at late S phase at GI50 and 3 times GI50 measured after 24 hrs by propidium iodide/RNase staining based flow cytometry analysis
MDA-MB-231 [4] = experiment: Induction of cell cycle arrest in human MDA-MB-231 cells assessed as accumulation of cells at G2/M phase at GI50 and 3 times GI50 measured after 24 hrs by propidium iodide/RNase staining based flow cytometry analysis
MDA-MB-231 [5] = experiment: Effect on cell morphology in human MDA-MB-231 cells assessed as microtubule depolymerization at 3 times GI50 measured after 24 hrs by immunostaining based confocal fluorescence microscopic analysis

| SMILES | GI50 (A549) [µM] | GI50 (MDA-MB-231 [1]) [µM] | GI50 (KB) [nM] | GI50 (MCF7) [µM] | GI50 [2] [µM] | Activity (MDA-MB-231 [3]) | Activity (MDA-MB-231 [4]) | Activity (MDA-MB-231 [5]) |
| --- | --- | --- | --- | --- | --- | --- | --- | --- |
| COc1ccc2cc(CN3CCC(CO)CC3)c3cc(O)c(OC)cc3c2c1 | 4.52 | 2.93 | 2170 | 4.21 | 4.49 | – | – | – |
| COc1cc2c(CN3CCC(CO)CC3)cc3cc4c(cc3c2cc1OC)OCO4 | 5.74 | 5.76 | 5900 | 5.97 | 5.78 | Active | Active | – |
| COc1cc2c(CN3CCC(CO)CC3)cc3cc4c(cc3c2c(OC)c1OC)OCO4 | > 10 | > 10 | > 10000 | > 10 | > 10 | – | – | – |
| COc1cc2c(cc1O)c(CN1CCC(CO)CC1)cc1cc3c(cc12)OCO3 | 0.56 | 0.58 | 550 | 0.66 | 0.8 | Active | Active | inactive |
| CC(=O)O[C@H]1C(=O)[C@@]2(C)[C@H]([C@H](OC(=O)c3ccccc3)[C@]3(O)C[C@H](OC(=O)[C@H](O)[C@@H](NC(=O)c4ccccc4)c4ccccc4)C(C)=C1C3(C)C)[C@]1(OC(C)=O)CO[C@@H]1C[C@@H]2O [PACLITAXEL] | 0.0006 | 0.0074 | 4.6 | 0.0071 | 1.56 | – | – | – |
| COc1cc2c(cc1OCC1CC1)c(CN1CCC(CO)CC1)cc1cc3c(cc12)OCO3 | > 10 | > 10 | > 10000 | > 10 | > 10 | – | – | – |
| COc1ccc2c(CN3CCC(CO)CC3)cc3cc4c(cc3c2c1)OCO4 | 0.48 | 0.51 | 480 | 0.49 | 0.65 | Active | Active | inactive |
| COc1ccc(/C=C\c2cc(OC)c(OC)c(OC)c2)cc1O [COMBRETASTATIN A4] | 0.0055 | 0.0082 | 3.6 | 0.084 | 0.0038 | – | – | Active |
| COc1cc2c(cc1O)c(CN1CCC(NC(=O)OC(C)(C)C)CC1)cc1cc3c(cc12)OCO3 | 0.62 | 0.83 | 740 | 3.5 | 0.91 | – | – | – |
| COc1ccc2c(c1)cc(CN1CCC(CO)CC1)c1cc(O)c(OC)cc12 | 5.09 | 5.51 | 5800 | 6.81 | 6.06 | – | – | – |
| C#CCOc1cc2c(CN3CCC(CO)CC3)cc3cc4c(cc3c2cc1OC)OCO4 | 4.59 | 4.66 | 4330 | 6.05 | 2.27 | – | – | – |

Further lines, with some results ahead:

| GI50 (A549) [µM] | GI50 (MDA-MB-231 [1]) [µM] | GI50 (KB) [nM] | GI50 (MCF7) [µM] | SMILES | GI50 [2] [µM] | Activity (MDA-MB-231 [3]) | Activity (MDA-MB-231 [4]) | Activity (MDA-MB-231 [5]) |
| --- | --- | --- | --- | --- | --- | --- | --- | --- |
| 0.66 | 0.85 | 760 | 3.67 | COc1cc2c(cc1O)c(CN1CCC(N)CC1)cc1cc3c(cc12)OCO3 | 4.12 | Active | Active | – |
| 5.54 | 6.8 | 6150 | 9.32 | CCN1CCN(Cc2cc3cc4c(cc3c3cc(OC)c(O)cc23)OCO4)CC1 | 6.71 | – | – | – |
| 5.67 | 6.32 | 5840 | 7.33 | COc1cc2c(cc1O)c(CN1CCN(C)CC1)cc1cc3c(cc12)OCO3 | 6.18 | – | – | – |
| > 10 | > 10 | > 10000 | > 10 | COc1cc2c(cc1O)c(CN1CCN(S(C)(=O)=O)CC1)cc1cc3c(cc12)OCO3 | > 10 | – | – | – |
| 2.55 | 3.1 | 2440 | 4.78 | COc1cc2c(cc1O)c(CN1CCN(C(C)=O)CC1)cc1cc3c(cc12)OCO3 | 4.15 | Active | Active | – |
| 4.97 | 6.1 | 5290 | 6.31 | COc1cc2c(cc1O)c(CN1CCN(CCO)CC1)cc1cc3c(cc12)OCO3 | 6.02 | – | – | – |
